This note sets out measurements from patent publication US12152012B2, “BRAG2 inhibitors and applications thereof” (CENTRE NATIONAL DE LA RECHERCHE SCIENTIFIQUE, priority 2018, dated 2024).

The assay concerns the target T1, ARNO (Sec7PH construct) (Homo sapiens, UniProt Q99418).
T1 construct: BIG1^DcbHusSec7 (2-888) and ARNO^Sec7PH (50-399); made in house
T1 sequence (Q99418 50-399 isoform Q99418-2): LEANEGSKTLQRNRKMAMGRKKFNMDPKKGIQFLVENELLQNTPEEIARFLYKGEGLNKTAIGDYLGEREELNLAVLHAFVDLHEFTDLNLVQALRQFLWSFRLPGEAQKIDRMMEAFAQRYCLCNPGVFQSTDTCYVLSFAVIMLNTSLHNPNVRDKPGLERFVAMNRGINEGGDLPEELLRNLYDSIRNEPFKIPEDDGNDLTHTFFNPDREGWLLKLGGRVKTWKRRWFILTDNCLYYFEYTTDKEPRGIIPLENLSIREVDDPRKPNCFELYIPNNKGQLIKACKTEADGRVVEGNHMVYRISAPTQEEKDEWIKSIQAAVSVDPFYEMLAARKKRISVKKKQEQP
Description: Nucleotide exchange kinetics on liposomes, activation of myristoylated Arf1. Particulars: 50 μM. Format: biochemical. The protocol: The effect of Bragsin1 on the GEF efficiency of representative human ArfGEFs was evaluated by fluorescence kinetics using highly purified recombinant Arf GTPases and ArfGEFs. In a first series of assays, the Sec7 domains of BIG1, a Golgi ArfGEF, and of ARNO, EFA6a and BRAG2, which function at the plasma membrane, were used. When tested in solution, Bragsin1 had no effect on the activation of Arf1 by any of these Sec7 domains (FIGS. 2a and 14). Separately, we reconstituted the activation of myristoylated Arf1 by the same ArfGEFs on liposomes using ArfGEF constructs that contain a membrane-binding domain (DCB-HUS domain for BIG1, PH domains for the other GEFs). […] BRAG2 activates several Arf isoforms, including the plasma membrane-located Arf6 isoform. […] Bragsin1 and Bragsin2 have the same IC50 towards BRAG2 ([…]) according to dose-response analysis, confirming that Bragsin1 and Bragsin2 can be used interchangeably (FIG. 2d). The specific inhibition of BRAG2 by Bragsin in vitro predicts that BRAG2 silencing by siRNA should yield the same phenotype as treatment by the small molecule. Silencing of BRAG2 induced the redistribution of TGN46 into tubular or punctate structures, which phenocopied the effects induced by Bragsin (FIGS. 2e, 17 and 18). […] Silencing of ARNO, which is located at the plasma membrane, had no effect on TGN46 distribution. Overexpression of BRAG2-mCherry rescued the dispersion of the TGN46 structure induced by Bragsin, which is consistent with the silencing experiments (FIG. 2f). Bragsin is a specific inhibitor of the ArfGEF BRAG2 in vitro and in cells according to these experiments. These oexperiments identify a mechanism of inhibition that requires the membrane to manifests itself.
Bovine Δ17Arf1 and human Δ13Arf6, full-length myristoylated Arf1 and Arf6, human BRAG2^Sec7 (390-594) and BRAG2^Sec7PH (390-811), human EFA6^Sec7 (527-727) and EFA6^Sec7PHCt (527-1024), ARNO^Sec7 (50-256), BIG1^Sec7 (691-889), BIG1^DcbHusSec7 (2-888) and ARNO^Sec7PH (50-399) were expressed and purified as in (Benabdi, S. et al. Family-wide Analysis of the Inhibition of Arf Guanine Nucleotide Exchange Factors with Small Molecules: Evidence of Unique Inhibitory Profiles. Biochemistry 56, 5125-5133 (2017)) and references therein. BRAG2^Sec7PH mutants were purified as the wild type protein. Purification of human full-length Rac1 carrying a 6xHis tag in C-terminus and human TRIO^DH1PH1 (1232-1550) was described in (Peurois, F. et al. Characterization of the activation of small GTPases by their GEFs on membranes using artificial membrane tethering. Biochem J 474, 1259-1272 (2017)).
Lipids (of natural origin) were from Avanti Polar Lipids, except NBD-PE from Sigma. Liposomes were prepared as described in (Aizel, K. et al. Integrated conformational and lipid-sensing regulation of endosomal ArfGEF BRAG2. PLOS Biol 11, e1001652 (2013)) and extruded at 0.2 μm. For the Arf GEF specificity studies, liposomes contained 48% phosphatidylcholine (PC), 20% phosphatidylethanolamine (PE), 30% phosphatidylserine (PS) and 2% phosphatidylinositol-4,5-bisphosphate (PIP2). For Rac activation assay, liposomes contained 43% PC, 20% PE, 10% PS, 20% cholesterol, 2% PIP2, 5% NiNTA lipids and 0.2% NBD-PE. To exclude aggregation or disruption of the liposomes, their size distribution was controlled before and after experiments by dynamic light scattering as described in (Benabdi, S. et al. Biochemistry 56, 5125-5133 (2017)). Dose-response and flotation assays were carried out with liposomes containing 37.9% PC, 20% PE, 20% PS, 2% PIP2, 20% cholesterol and 0.1% NBD-PE. Flotation assays were carried out as in 18.
Nucleotide exchange kinetics were monitored by tryptophan fluorescence with excitation/emission wavelengths of 292/340 nm using a Cary Eclipse fluorimeter (Varian) at 37° C. and under continuous stirring as described in ^50,51. […]

As to `Cc1ccc2oc(C(F)(F)F)cc(=O)c2c1[N+](=O)[O-]` [Bragsin1, 6-methyl-5-nitro-2-(trifluoromethyl)-4H-chromen-4-one], the “Effect on ArfGEF activity on liposomes” value is listed as “no effect”.
